Earlier results, collected in paper PMC2764006 (Journal of molecular biology, 2009).

Conditions: single-molecule FRET

In the case of polyproline, the persistence length lp is listed as 44 Å.
